Assay results from PubChem BioAssay AID328 (DTP/NCI, 2004).
“And” between values parts separate entries of the source, which are not always exact repeats. Equal values may be shown once. Toxic doses and inconclusive results are not listed.

Tested on: BDF1 mice, P388 leukemia ip, median survival T/C
Experiment: NCI In Vivo Anticancer Drug Screen. Data for tumor model P388 Leukemia (intraperitoneal) in B6D2F1 (BDF1) mice
Details: endpoint: median survival time, higher = longer survival
Method in brief: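 In tumour-bearing mice, survival after compound treatment is set against the vehicle group and given as a quotient.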

[1] = dose: 12.5 mg/kg/injection, schedule: Q01DX009 (ip), vehicle: saline with Tween-80
[2] = dose: 25.0 mg/kg/injection, schedule: Q01DX009 (ip), vehicle: saline with Tween-80
[3] = dose: 25.0 mg/kg/injection, schedule: Q04DX003 (ip), vehicle: saline with Tween-80
[4] = dose: 50.0 mg/kg/injection, schedule: Q01DX009 (ip), vehicle: saline with Tween-80
[5] = dose: 50.0 mg/kg/injection, schedule: Q04DX003 (ip), vehicle: saline with Tween-80
[6] = dose: 100.0 mg/kg/injection, schedule: Q01DX009 (ip), vehicle: saline with Tween-80
[7] = dose: 200.0 mg/kg/injection, schedule: Q01DX009 (ip), vehicle: saline with Tween-80

SMILES: CSc1cc(-c2ccc(Cl)cc2)s[s+]1
- T/C (dose: 3.12 mg/kg/injection, schedule: Q04DX003 (ip), vehicle: saline with Tween-80): 104 % of control
- T/C (dose: 6.25 mg/kg/injection, schedule: Q01DX009 (ip), vehicle: saline with Tween-80): 110 % of control
- T/C (dose: 6.25 mg/kg/injection, schedule: Q04DX003 (ip), vehicle: saline with Tween-80): 111 % of control
- T/C [1]: 89 % of control
- T/C (dose: 12.5 mg/kg/injection, schedule: Q04DX003 (ip), vehicle: saline with Tween-80): 109 % of control
- T/C [2]: 100 % of control
- T/C [3]: 108 % of control
- T/C [4]: 91 % of control
- T/C [5]: 94 % of control

SMILES: COc1ccc2c(c1)N(C(=O)N(CCOC(=O)Nc1ccccc1)CCOC(=O)Nc1ccccc1)c1ccccc1S2
- T/C [2]: 95 % of control
- T/C [4]: 91 % of control

SMILES: O=[N+]([O-])c1ccc(S(=O)c2ccc([N+](=O)[O-])cc2)cc1
- T/C (dose: 100.0 mg/kg/injection, schedule: Q01DX009 (ip), vehicle: Klucel (hydroxypropylcellulose) (HPC)): 100 % of control
- T/C (dose: 100.0 mg/kg/injection, schedule: Q04DX003 (ip), vehicle: Klucel (hydroxypropylcellulose) (HPC)): 100 % of control
- T/C (dose: 200.0 mg/kg/injection, schedule: Q01DX009 (ip), vehicle: Klucel (hydroxypropylcellulose) (HPC)): 95 % of control
- T/C (dose: 200.0 mg/kg/injection, schedule: Q04DX003 (ip), vehicle: Klucel (hydroxypropylcellulose) (HPC)): 100 % of control
- T/C (dose: 400.0 mg/kg/injection, schedule: Q04DX003 (ip), vehicle: Klucel (hydroxypropylcellulose) (HPC)): 100 % of control

SMILES: O=C(O)c1ccc(Cl)cc1Nc1ccc(Cl)cc1
- T/C [3]: 120 % of control
- T/C [5]: 100 % of control
- T/C (dose: 100.0 mg/kg/injection, schedule: Q04DX003 (ip), vehicle: saline with Tween-80): 100 % of control

SMILES: CN(C)C(=O)CCCCC(=O)N(C)C
- T/C (dose: 1.0 mg/kg/injection, schedule: Q01DX001 (ip), vehicle: saline): 96 % of control
- T/C (dose: 2.0 mg/kg/injection, schedule: Q01DX001 (ip), vehicle: saline): 110 % of control
- T/C (dose: 4.0 mg/kg/injection, schedule: Q01DX001 (ip), vehicle: saline): 106 % of control
- T/C (dose: 8.0 mg/kg/injection, schedule: Q01DX001 (ip), vehicle: saline): 102 % of control
- T/C (dose: 16.0 mg/kg/injection, schedule: Q01DX001 (ip), vehicle: saline): 96 % of control
- T/C (dose: 32.0 mg/kg/injection, schedule: Q01DX001 (ip), vehicle: saline): 100 % of control
- T/C (dose: 64.0 mg/kg/injection, schedule: Q01DX001 (ip), vehicle: saline): 95 % of control
- T/C (dose: 128.0 mg/kg/injection, schedule: Q01DX001 (ip), vehicle: saline): 102 % of control

SMILES: O=[N+]([O-])c1ccc(N=NNc2ccc(N=Nc3ccccc3)cc2)cc1
- T/C (dose: 12.5 mg/kg/injection, schedule: Q01DX009 (ip), vehicle: Klucel (hydroxypropylcellulose) (HPC)): 109 % of control
- T/C (dose: 25.0 mg/kg/injection, schedule: Q01DX009 (ip), vehicle: Klucel (hydroxypropylcellulose) (HPC)): 118 % of control
- T/C (dose: 50.0 mg/kg/injection, schedule: Q01DX009 (ip), vehicle: Klucel (hydroxypropylcellulose) (HPC)): 95 % of control
- T/C (dose: 75.0 mg/kg/injection, schedule: Q01DX009 (ip), vehicle: Klucel (hydroxypropylcellulose) (HPC)): 100 % of control
- T/C (dose: 115.0 mg/kg/injection, schedule: Q01DX009 (ip), vehicle: Klucel (hydroxypropylcellulose) (HPC)): 95 % of control
- T/C (dose: 170.0 mg/kg/injection, schedule: Q01DX009 (ip), vehicle: Klucel (hydroxypropylcellulose) (HPC)): 90 % of control

SMILES: Nc1nc2c(ncn2C2CC(O)C(CO)O2)c(=O)n1N (stereo unspecified)
- T/C [1]: 97 % of control
- T/C [2]: 111 % of control
- T/C [4]: 108 % of control
- T/C [6]: 101 % of control

SMILES: COC(=O)C(C)C(C)=O (stereo unspecified)
- T/C (dose: 100.0 mg/kg/injection, schedule: Q04DX003 (sc), vehicle: olive oil, sesame oil, peanut oil): 100 % of control
- T/C (dose: 200.0 mg/kg/injection, schedule: Q04DX003 (sc), vehicle: olive oil, sesame oil, peanut oil): 104 % of control
- T/C (dose: 400.0 mg/kg/injection, schedule: Q04DX003 (sc), vehicle: olive oil, sesame oil, peanut oil): 100 % of control

SMILES: Nc1nc(SCc2ccccc2)c2[nH]cnc2n1
- T/C (dose: 8.0 mg/kg/injection, schedule: Q01DX010 (ip), vehicle: saline): 90 % of control and 100 % of control
- T/C (dose: 16.0 mg/kg/injection, schedule: Q01DX010 (ip), vehicle: saline): 90 % of control and 105 % of control
- T/C (dose: 32.0 mg/kg/injection, schedule: Q01DX010 (ip), vehicle: saline): 90 % of control and 110 % of control
- T/C (dose: 64.0 mg/kg/injection, schedule: Q01DX010 (ip), vehicle: saline): 104 % of control and 120 % of control

SMILES: CCCCC(=O)/C=C/c1ccccc1
- T/C [4]: 102 % of control
- T/C [6]: 109 % of control
- T/C [7]: 120 % of control

SMILES: O=C(CC(=O)NN=C1CCCCCC1)NN=C1CCCCCC1
- T/C (dose: 37.5 mg/kg/injection, schedule: Q01DX009 (ip), vehicle: saline with Tween-80): 98 % of control
- T/C (dose: 75.0 mg/kg/injection, schedule: Q01DX009 (ip), vehicle: saline with Tween-80): 105 % of control
- T/C (dose: 150.0 mg/kg/injection, schedule: Q01DX009 (ip), vehicle: saline with Tween-80): 99 % of control

SMILES: CCOC(=O)c1c[nH]c2nc(SC)nc(NC(C)=O)c2c1=O
- T/C [4]: 102 % of control
- T/C [6]: 87 % of control
- T/C [7]: 89 % of control

SMILES: COc1ccc(C2=CC(c3ccc(OC)c(OC)c3)c3c(c4ccccc4oc3=O)O2)cc1OC (stereo unspecified)
- T/C (dose: 12.5 mg/kg/injection, schedule: Q01DX009 (ip), vehicle: water): 98 % of control
- T/C (dose: 25.0 mg/kg/injection, schedule: Q01DX009 (ip), vehicle: water): 100 % of control
- T/C (dose: 25.0 mg/kg/injection, schedule: Q04DX003 (ip), vehicle: water): 97 % of control
- T/C (dose: 50.0 mg/kg/injection, schedule: Q01DX009 (ip), vehicle: water): 97 % of control
- T/C (dose: 50.0 mg/kg/injection, schedule: Q04DX003 (ip), vehicle: water): 94 % of control
- T/C (dose: 100.0 mg/kg/injection, schedule: Q01DX009 (ip), vehicle: water): 96 % of control and 97 % of control
- T/C (dose: 200.0 mg/kg/injection, schedule: Q04DX003 (ip), vehicle: water): 97 % of control
- T/C (dose: 400.0 mg/kg/injection, schedule: Q01DX009 (ip), vehicle: water): 106 % of control
- T/C (dose: 400.0 mg/kg/injection, schedule: Q04DX003 (ip), vehicle: water): 97 % of control

SMILES: O=C(O)c1ccc(N=NSc2ncnc3nc[nH]c23)cc1O
- T/C (dose: 1.3 mg/kg/injection, schedule: Q01DX009 (ip), vehicle: saline with Tween-80): 115 % of control
- T/C (dose: 3.0 mg/kg/injection, schedule: Q01DX009 (ip), vehicle: saline with Tween-80): 153 % of control
- T/C (dose: 4.0 mg/kg/injection, schedule: Q01DX009 (ip), vehicle: saline with Tween-80): 150 % of control
- T/C (dose: 6.0 mg/kg/injection, schedule: Q01DX009 (ip), vehicle: saline with Tween-80): 119 % of control and 123 % of control
- T/C (dose: 9.0 mg/kg/injection, schedule: Q01DX009 (ip), vehicle: saline with Tween-80): 123 % of control
- T/C (dose: 12.0 mg/kg/injection, schedule: Q01DX009 (ip), vehicle: saline with Tween-80): 96 % of control
- T/C (dose: 14.5 mg/kg/injection, schedule: Q04DX003 (ip), vehicle: saline with Tween-80): 122 % of control
- T/C (dose: 22.0 mg/kg/injection, schedule: Q04DX003 (ip), vehicle: saline with Tween-80): 122 % of control
- T/C [3]: 161 % of control
- T/C (dose: 33.0 mg/kg/injection, schedule: Q04DX003 (ip), vehicle: saline with Tween-80): 118 % of control and 119 % of control
- T/C [5]: 177 % of control
- T/C (dose: 75.0 mg/kg/injection, schedule: Q04DX003 (ip), vehicle: saline with Tween-80): 119 % of control

SMILES: CCCCCCC(N)C(C)=O (stereo unspecified)
- T/C (dose: 50.0 mg/kg/injection, schedule: Q01DX009 (ip), vehicle: saline): 93 % of control
- T/C (dose: 100.0 mg/kg/injection, schedule: Q01DX009 (ip), vehicle: saline): 95 % of control
